From publication PMC7336998, “Discovery of secondary sulphonamides as IDO1 inhibitors with potent antitumour effects in vivo” (Journal of Enzyme Inhibition and Medicinal Chemistry, 2020)

How the values were obtained:
[1] = target: T1, IDO1 (Homo sapiens, UniProt P14902); assay: HeLa cell-based IDO1/kynurenine assay; details: for IC50: HeLa cells, IFN-γ induced IDO1, kynurenine readout; for inhibition at 30 µM: percentage inhibition at 30 μM, IFN-γ-treated HeLa cells, kynurenine in media
T1 construct: a human cervical cancer cell line HeLa that endogenously expresses IDO1 upon IFN-γ treatment; endogenous in cells; host or cells: HeLa cells treated with human IFN-γ
Protocol: (§1) The main bioassays performed in the study, including HeLa cell-based IDO1/kynurenine assay, Western blot analysis, T cell proliferation and Treg cell differentiation experiments, were carried out as described previously.
It is well known that IDO1 is broadly expressed in human cancers and is induced by pro-inflammatory cytokines, such as interferon gamma (IFN-γ) and tumour necrosis factor alpha (TNF-α)[41]. Here we utilised a human cervical cancer cell line HeLa that endogenously expresses IDO1 upon IFN-γ treatment to evaluate the IDO1 inhibitory activity of the synthesised compounds by measuring kynurenine secreted into the media. […] Thus, we also employed this cellular assay to detect false positive IDO1 inhibitors and cytotoxic compounds by measuring HeLa cell viability. Clinical candidate navoximod was used as an assay control.

[2] = tested on: IDO1 protein expression; assay: Western blot of IDO1 protein expression in IFN-γ-treated HeLa cells; format: cell-based, human; details: HeLa cells, IFN-γ 100 ng/mL 24 h, then compounds at their IC50 concentrations for 24 h
Protocol: as §1
To exclude the possibility that these secondary sulphonamides inhibit IDO1 activity by down-regulating IDO1 expression, we utilised Western blot to measure the expression of IDO1 protein in HeLa cells treated with different compounds.
Figure 3. […] (B) The greyscale scanning statistical results of A. (C) HeLa cells were incubated with compound 5d (3, 10, 30 μM) for 24 h. (D) The greyscale scanning statistical results of C. (E) HeLa cells were incubated with compound 5d (3, 10, 30 μM) for 48 h. (F) The greyscale scanning statistical results of E. Data are presented as means ± SEM (n = 3).

T1 sequence (P14902 whole entry): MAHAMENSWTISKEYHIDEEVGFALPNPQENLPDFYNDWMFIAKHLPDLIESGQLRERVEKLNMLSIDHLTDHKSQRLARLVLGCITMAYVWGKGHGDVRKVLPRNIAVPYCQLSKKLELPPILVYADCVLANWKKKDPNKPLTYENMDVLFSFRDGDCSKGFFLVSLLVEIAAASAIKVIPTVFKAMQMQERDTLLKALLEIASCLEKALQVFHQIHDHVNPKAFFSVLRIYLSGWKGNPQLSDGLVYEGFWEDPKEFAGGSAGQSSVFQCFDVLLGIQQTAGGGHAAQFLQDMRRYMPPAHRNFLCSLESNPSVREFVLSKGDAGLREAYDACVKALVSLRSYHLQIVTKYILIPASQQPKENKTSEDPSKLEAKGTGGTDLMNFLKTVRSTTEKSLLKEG

IC50 [1]	inhibition at 30 µM [1]	melting point	SMILES	expression of IDO1 protein [2]
30.5 µM	49.5%	152 to 154 °C	C=CC(=O)Nc1ccc(S(=O)(=O)NCc2cccc(C(F)(F)F)c2)cc1 [5g, N-(4-(N-(3-(Trifluoromethyl)benzyl)sulfamoyl)phenyl)acrylamide]	
20.5 µM	70.9%	178 to 180 °C	C=CC(=O)Nc1ccc(S(=O)(=O)NCc2ccc(F)cc2)cc1 [5h, N-(4-(N-(4-Fluorobenzyl)sulfamoyl)phenyl)acrylamide]	
39.5 µM	37.8%	152 to 154 °C	C=CC(=O)Nc1ccc(S(=O)(=O)NCc2cccc(F)c2)cc1 [5i, N-(4-(N-(3-Fluorobenzyl)sulfamoyl)phenyl)acrylamide]	
22.7 µM	65.1%	178 to 180 °C	C=CC(=O)Nc1ccc(S(=O)(=O)NCc2ccccc2Cl)cc1 [5j, N-(4-(N-(2-Chlorobenzyl)sulfamoyl)phenyl)acrylamide]	
42.1 µM	37.5%	194 to 196 °C	C=CC(=O)Nc1ccc(S(=O)(=O)NCc2ccc(Br)cc2)cc1 [5k, N-(4-(N-(4-Bromobenzyl)sulfamoyl)phenyl)acrylamide]	
37.3 µM	44%	148 to 150 °C	C=CC(=O)Nc1ccc(S(=O)(=O)NCc2ccc(Cl)c(Cl)c2)cc1 [5m, N-(4-(N-(3,4-Dichlorobenzyl)sulfamoyl)phenyl)acrylamide]	
13.2 µM	85.9%	212 to 213 °C	C=CC(=O)Nc1ccc(S(=O)(=O)Nc2ccccc2)cc1 [8a, N-(4-(N-Phenylsulfamoyl)phenyl)acrylamide]	
	25.3%	230 to 232 °C	C=CC(=O)Nc1ccc(S(=O)(=O)Nc2ccc(C)cc2)cc1 [8b, N-(4-(N-(p-Tolyl)sulfamoyl)phenyl)acrylamide]	
	20.9%	234 to 235 °C	C=CC(=O)Nc1ccc(S(=O)(=O)Nc2ccc(OC)cc2)cc1 [8c, N-(4-(N-(4-Methoxyphenyl)sulfamoyl)phenyl)acrylamide]	
13.4 µM	74.8%	197 to 199 °C	C=CC(=O)Nc1ccc(S(=O)(=O)Nc2cccc(OC)c2)cc1 [8d, N-(4-(N-(3-Methoxyphenyl)sulfamoyl)phenyl)acrylamide]	
17.7 µM	69.7%	212 to 215 °C	C=CC(=O)Nc1ccc(S(=O)(=O)Nc2cccc(F)c2)cc1 [8e, N-(4-(N-(3-Fluorophenyl)sulfamoyl)phenyl)acrylamide]	
9.48 µM	89.5%	217 to 219 °C	C=CC(=O)Nc1ccc(S(=O)(=O)Nc2cccc(Cl)c2)cc1 [8f, N-(4-(N-(3-Chlorophenyl)sulfamoyl)phenyl)acrylamide]	did not influence IDO1 expression
	16.4%	229 to 230 °C	C=CC(=O)Nc1ccc(S(=O)(=O)Nc2ncccn2)cc1 [8h, N-(4-(N-(Pyrimidin-2-yl)sulfamoyl)phenyl)acrylamide]	
	23.6%	206 to 208 °C	C=CC(=O)Nc1ccc(S(=O)(=O)Nc2onc(C)c2C)cc1 [8i, N-(4-(N-(3,4-Dimethylisoxazol-5-yl)sulfamoyl)phenyl)acrylamide]	
	22.7%	232 to 233 °C	C=CC(=O)Nc1ccc(S(=O)(=O)Nc2cc(C)on2)cc1 [8j, N-(4-(N-(5-Methylisoxazol-3-yl)sulfamoyl)phenyl)acrylamide]	
